Assay results taken from patent US20210002725A1, “METHODS FOR THE DIAGNOSIS OF METABOLIC DISORDERS USING EPIMETABOLIC SHIFTERS, MULTIDIMENSIONAL INTRACELLULAR MOLECULES, OR ENVIRONMENTAL INFLUENCES” (Berg LLC, priority 2009, published 2021).
Values joined by “and” are separate entries in the source; they are usually repeats but may differ in a detail not shown here. Equal values may be shown once. “Also recorded” adds a separate entry of the source.

Columns and labels:
HepG2 cells = assay: Nexin assay for early and late apoptosis (flow cytometry); type: cell-based; conditions: 50 μM Q10, 24 hours
Text: (§1) The 7AAD dye will enter into cells with permeabilized cell membranes; primarily those cells that are in late apoptosis. Annexin-V-PE is a dye that binds to Phosphotidyl serine, which is exposed on the outer surface of the plasma membrane in early apoptotic cells. The Nexin reagent thus can be used to differentiate between different populations of apoptotic cells in a flow cytometer.

MCF-7 cells = assay: as above; type: cell-based; conditions: 50 μM and 100 μM Q10, 24 hours
Text: as §1

PaCa2 cells = assay: as above; type: cell-based; conditions: 50 μM and 100 μM Q10, 24 hours
Text: as §1

[1] = tested on: Lactate Dehydrogenase (LDH); assay: Western blot of Lactate Dehydrogenase levels in cells treated with Coenzyme Q10; type: cell-based, human; conditions: HepG2, 5 g, 24 h, 50 μM
Procedure: The samples were processed and run on a 4-12% Bis-Tris Novex NuPAGE gel as described above. The gels were run, transferred and stained essentially as described above.
After transfer each blot was dried for 15-20 minutes, activated with methanol for 5 seconds, washed with water for 5 minutes, and TBST for 15 minutes. The blots were blocked for 1 hour with 5% blocking reagent in TBS-T at room temperature and then washed 3 times with TBS-T (1×-15′; 2×5′ each) and probed with the primary antibody for Lactate Dehydrogenase (abcam ab2101; polyclonal) in 5% BSA (at 1:1000 dilutions) by incubation overnight at 4 deg C. with shaking. After the overnight incubation with primary antibody for Lactate Dehydrogenase, the blots were washed 3 times with TBS-T (1×-15′; 2×5′ each) and probed with the secondary antibody (rabbit antigoat; 1:10,000 dilution) for 1 h at room temperature. After 1 h of incubation with secondary antibodies, the blots were washed 3 times with TBS-T (1×-15′; 2×5′ each) and then incubated with ECF reagent for 5 mins and then each blot scanned with 5100 Fuji Laser scanner at 25 uM resolution, 16 bit, green laser, at 400V and at 500 V. […]
The levels of LDH and PDH were determined by probing the blots successively with primary antibodies for LDH and PDH, essentially as described above. […]

HDFa cells = assay: SeaHorse XF analyzer OCR and ECAR; type: cell-based, human; conditions: normoxic and hypoxic conditions, 5.5 mM and 22 mM glucose
Text: Environmental influencers (e.g., MIMs or Epi-shifters) may also be identified by changes in cellular energetics. One example of the measurement of cellular energetics are the real-time measures of the consumption of molecular oxygen and/or the change in pH of the media of a cell culture. For example, the ability of a potential epi-shifter to modulate the metabolic state of a cell may be analyzed using, for example, the XF24 Analyzer (Seahorse, Inc.). This technology allows for real time detection of oxygen and pH changes in a monolayer of cells in order to evaluate the bioenergetics of a cell microenvironment. The XF24 Analyzer measures and compares the rates of oxygen consumption (OCR), which is a measure of aerobic metabolism, and extracellular acidification (ECAR), which is a measure of glycolysis, both key indicators of cellular energetics.
(SeaHorse Biosciences Inc, North Billerica, Mass.).
In this experiment, the OCR and extracellular acidification rate (ECAR) in normal cells lines were obtained in the presence and absence of CoQ10 to determine baseline values. It was observed that in its native nutrient environment, the basal OCR rates in normal cells lines are different, and are usually a function of the physiological roles of the cells in the body.
For example, one set of experiments were conducted using the non-cancerous cell line HDFa, which is a human adult dermal fibroblast cell line. Fibroblasts are cells that primarily synthesize and secrete extracellular matrix (ECM) components and collagen that form the structural framework (stroma) for tissues. In addition, fibroblasts are known to serve as tissue ambassadors of numerous functions such as wound healing and localized immnomodulation. Under normal physiological conditions, energy requirements in normal fibroblasts are met using a combination of glycolysis and oxidative phosphorylation—the glycolysis providing the necessary nutrients for synthesis of ECM.
FIGS. 29 and 30 describe the OCR in HDFa and HASMC cells grown in physiologically normal glucose (about 4.6 mM) and high glucose (hyperglycemic) conditions.

key proteins = assay: Summary of key proteins modulated by Q10

Structure (SMILES): COC1=C(OC)C(=O)C(C/C=C(\C)CC/C=C(\C)CC/C=C(\C)CC/C=C(\C)CC/C=C(\C)CC/C=C(\C)CC/C=C(\C)CC/C=C(\C)CC/C=C(\C)CCC=C(C)C)=C(C)C1=O [Q10, Coenzyme Q10]
- increase of gated population in late apoptotic and early apoptotic stages (HepG2 cells): about 20%
- apoptotic population (MCF-7 cells): increase only in early apoptotic population
- increase in early and late apoptotic cells (PaCa2 cells): 5-10 % of gated cells
- Lactate Dehydrogenase Normalized Volume [1]: 7900
- ECAR values (HDFa cells): minimal influence on ECAR values
- Key proteins modulated: Apoptotic response (key proteins): Bcl-xl, Bcl-xS, BNIP-2, Bcl-2, Birc6,; also recorded: Bcl-2-L11 (Bim), XIAP, BRAF, Bax,; also recorded: c-Jun, Bmf, PUMA, cMyc
- Key proteins modulated: Biosynthetic pathway (key proteins): COQ1, COQ3, COQ6, prenyltransferase, and 4-hydroxybenzoate
- Key proteins modulated: Oxidative phosphorylation metabolism (key proteins): Cytochrome c, complex I, complex II,; also recorded: complex III, complex IV,
- Key proteins modulated: Pentose Phosphate Pathway (key proteins): transaldolase 1
- Key proteins modulated: Transcription factors (key proteins): HNF4alpha
